Data published in patent publication US4595693A, “Method of use of 2,5-diaryl tetrahydrofurans and analogs thereof as PAF-antagonists” (Merck & Co., Inc., priority 1984, dated 1986).

What was measured:
[1] = target: T1, PAF specific receptor binding site on rabbit platelet plasma membranes (Oryctolagus cuniculus, UniProt G1TEI7); assay: Inhibition of 3H-PAF binding to rabbit platelet plasma membrane; details: 1 h
T1 construct: 100 μg of the platelet plasma membrane suspension; from tissue; host or cells: rabbit platelet plasma membranes
T1 sequence (G1TEI7 1-342): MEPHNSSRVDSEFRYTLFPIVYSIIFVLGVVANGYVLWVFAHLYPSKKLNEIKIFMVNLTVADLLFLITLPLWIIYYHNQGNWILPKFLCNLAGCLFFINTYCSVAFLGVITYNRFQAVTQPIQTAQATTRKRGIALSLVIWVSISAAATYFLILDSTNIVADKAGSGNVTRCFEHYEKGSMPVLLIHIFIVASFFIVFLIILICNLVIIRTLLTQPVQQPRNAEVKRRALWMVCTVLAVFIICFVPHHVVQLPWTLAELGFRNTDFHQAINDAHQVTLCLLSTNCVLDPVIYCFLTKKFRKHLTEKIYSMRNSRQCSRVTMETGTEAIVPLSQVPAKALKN
Description: The inhibition of H^3 -PAF binding to the rabbit platelet plasma membrane by a PAF-antagonist of Formula (I) was determined by a method employing isotopic labeling and filtration techniques. Generally, a series of Tris-buffered solutions of the selected antagonist at predetermined concentrations were prepared. […] After adding into a set of test tubes each with 100 μg of the platelet plasma membrane suspension and one of the Tris-buffer solutions described above, the resulting mixture in each test tube was incubated at 0° C. for about one hour or until the reaction was complete. Two control samples, one of which (C1) contains all the ingredients described above except the antagonist and the other (C2) contains C1 plus a 1000-fold excess of unlabelled PAF, were also prepared and incubated simultaneously with the test samples. After the incubation was completed, the contents of each test tube were filtered under vacuo through a Whatman GF/C fiberglass filter and the residue washed rapidly several times with a total of 20 ml cold (0°-5° C.) Tris-buffer solution. Each washed residue was then suspended in 10 ml scintillation solution (Aquasol 2, New England Nuclear, Conn.) and the radioactivity was counted in a Packard Tri-Carb 460CD Liquid Scintillation System. Defining the counts from a test sample as "Total binding with antagonist"; the counts from the control sample C1, as "Total binding C1 "; and the counts from the control sample C2 as "non-specific binding C2 ", the percent inhibition of each test antagonist can be determined by the following equation: [formula]

[2] = test system: PAF-induced cutaneous vascular permeability; assay: Method I: oral inhibition of PAF-induced increase of cutaneous vascular permeability; assay type: in vivo; details: guinea pig, dose 50 mg/kg PO
From the text: The specific PAF-antagonistic activities are further established by two in vivo assays (Modified procedure of Humphrey et al. Lab. Investigation, 46, 422 (1982)) following the protocols described below:
Method I: Protocol for the evaluation of the oral activity of PAF antagonists or the inhibition of PAF-induced increase of vasopermeability by PAF-antagonists
I. Animal species: 5 guinea pigs (400-500 g)
II. Material: 0.5% (w/v) aqueous methylcellulose solution sodium nembutol
2% Evans Blue solution: 2 g of Evans Blue in 100 ml of pH 7.5 Tris-Buffer solution
Tris-Buffer solution: 150 mM NaCl and 10 mM Tris/ml with pH adjusted to 7.5.
1. Weigh the guinea pigs. Label them as control, T1, T2, T3 and T4.
2. Fast the animals overnight.
3. Weigh the animals again after the fasting.
4. Ground and suspend a PAF antagonist of formula (I) with intensive sonication in 3 ml of 0.5% aqueous methylcellulose solution.
5. […]
8. […] In the meantime, shave the backs of the guinea pigs and get ready for the PAF injection. […]
15. Measure the absorbance of each supernatant from Step (14) ("skin sample") as well as the plasma extract from Step (13) ("plasma sample") at 620 nm with a Cary 210 spectrophotometer (Varian, Palo Alto, CA). […]

[3] = test system: PAF-induced degranulation; assay: Method II: inhibition of PAF-induced degranulation in rats; assay type: in vivo, rat; details: oral dose of 50 mg/kg
PAF = assay: PAF-antagonist activity (general comparison)

| SMILES | inhibition at 10 µM [1] [%] | inhibition at 1 µM [1] [%] | inhibition at 5 µM [1] [%] | also measured |
| --- | --- | --- | --- | --- |
| COC[C@H]1[C@@H](C)[C@@H](c2ccc(OC)c(OC)c2)O[C@H]1c1ccc(OC)c(OC)c1 (relative stereo) [R=CH3; R1=CH2OCH3; Ar=3,4-dimethoxyphenyl; Ar1=Same as Ar; isomer (4)] |  |  | 62 |  |
| COc1cc([C@H]2O[C@@H](c3cc(OC)c(OC)c(OC)c3)[C@H](C)[C@H]2C)cc(OC)c1OC (relative stereo) [R=CH3; R1=CH3; Ar=3,4,5-trimethoxyphenyl; Ar1=Same as Ar; isomer (1)] |  |  | 61 | inhibition at 0.5 µM ([1]; dose 0.5 (μm)): 42% |
| COc1ccc([C@H]2O[C@@H](c3ccccc3)[C@@H](C)[C@H]2C)cc1OC (relative stereo) [R=CH3; R1=CH3; Ar=3,4-dimethoxyphenyl; Ar1=phenyl; isomer (4)] | 100 | 9 |  |  |
| COc1cccc([C@H]2O[C@@H](c3ccccc3)[C@@H](C)[C@H]2C)c1 (relative stereo) [R=CH3; R1=CH3; Ar=3-methoxyphenyl; Ar1=phenyl; isomer (4)] | 49 | 28 |  |  |
| C[C@@H]1[C@@H](C)[C@H](c2ccccc2)O[C@@H]1c1ccccc1 (relative stereo) [R=CH3; R1=CH3; Ar=phenyl; Ar1=phenyl; isomer (1)] |  |  | 13 |  |
| CCOC(=O)[C@@H]1[C@@H](C(=O)OCC)[C@H](c2ccc(OC)c(OC)c2)O[C@@H]1c1ccc(OC)c(OC)c1 (relative stereo) [R=CO2Et; R1=CO2Et; Ar=3,4-dimethoxyphenyl; Ar1=Same as Ar; isomer (1)] |  | 63 |  |  |
| COc1ccc([C@H]2O[C@@H](c3ccc(OC)c(OC)c3)[C@@H](C)[C@H]2C)cc1OC [R=CH3; R1=CH3; Ar=3,4-dimethoxyphenyl; Ar1=Same as Ar; isomer (4), All cis-3,4-Dimethyl-2,5-bis(3,4-dimethoxyphenyl)-tetrahydrofuran] |  |  |  | % inhibition [2]: 30%; inhibition of PAF-induced degranulation [3]: 49%; PAF-antagonist activity, rank in words (PAF): most active PAF-antagonist |

Now from value to compound, other results behind:

| inhibition at 10 µM [1] [%] | inhibition at 1 µM [1] [%] | inhibition at 5 µM [1] [%] | SMILES | also measured |
| --- | --- | --- | --- | --- |
| 52 |  |  | COc1ccc(OC)c(C2OC(c3cc(OC)ccc3OC)C(C)C2C)c1 (stereo not shown) |  |
|  | 15 |  | COC(=O)[C@@H]1[C@@H](C(=O)OC)[C@H](c2cc(OC)c(O)cc2Cl)O[C@@H]1c1cc(OC)c(O)cc1Cl (relative stereo) |  |
|  | 2 | 39 | COc1cc([C@@H]2O[C@@H](c3cc(OC)c(OC)c(OC)c3)[C@H](C)[C@H]2C)cc(OC)c1OC (relative stereo) [R=CH3; R1=CH3; Ar=3,4,5-trimethoxyphenyl; Ar1=Same as Ar; isomer (2)] | inhibition at 20 µM [1]: 63% |
| 45 | 11 |  | C[C@@H]1[C@H](C)[C@H](c2ccccc2)O[C@@H]1c1ccc2c(c1)OCO2 (relative stereo) [R=CH3; R1=CH3; Ar=3,4-methylenedioxyphenyl; Ar1=phenyl; isomer (4)] |  |
| 47 |  |  | COc1ccc([C@H]2O[C@@H](c3ccc(OC)cc3)[C@H](C)[C@H]2C)cc1 (relative stereo) [R=CH3; R1=CH3; Ar=4-methoxyphenyl; Ar1=Same as Ar; isomer (1)] |  |
|  | 33 |  | COC(=O)[C@@H]1[C@H](C)[C@H](c2ccc(OC)c(OC)c2)O[C@@H]1c1ccc(OC)c(OC)c1 (relative stereo) [R=CO2CH3; R1=CH3; Ar=3,4-dimethoxyphenyl; Ar1=Same as Ar; isomer (4)] |  |
|  | 18 |  | COc1ccc([C@H]2O[C@@H](c3ccc(OC)c(OC)c3)[C@@H](C)[C@H]2C(=O)O)cc1OC (relative stereo) [R=COOH; R1=CH3; Ar=3,4-dimethoxyphenyl; Ar1=Same as Ar; isomer (4)] |  |
|  | 12 | 48 | COc1cc([C@H]2O[C@@H](c3cc(OC)c(OC)c(OC)c3)[C@@H](C)[C@H]2C)cc(OC)c1OC [R=CH3; R1=CH3; Ar=3,4,5-trimethoxyphenyl; Ar1=Same as Ar; isomer (4)] | inhibition at 20 µM [1]: 68% |
